According to ChEMBL document CHEMBL5303764, “Data for DCP probe BI-3812” (2023):
pKi: −log10 of the molar value.

Experiments:
[1] = molecular target: Muscarinic acetylcholine receptor M4 (Homo sapiens, UniProt P08173); experiment: GPCRScan assay: inhibition of M4; set-up: radioligand conc. used [nm] 0.3 – 1.0, parental cells stable CHO
[2] = molecular target: B-cell CLL/lymphoma 6 member B protein (Homo sapiens, UniProt Q8N143); experiment: SPR (BCL6B), Ontario institute for cancer research
[3] = molecular target: 5-hydroxytryptamine receptor 2A (Homo sapiens) (UniProt P28223); experiment: 5HT2AH_AGON Eurofins SafetyScreen44 (BI); conditions: filed as agonist, Compound concentration 10.0 uM
Sequence of 5-hydroxytryptamine receptor 2A (Homo sapiens) (P28223 whole entry): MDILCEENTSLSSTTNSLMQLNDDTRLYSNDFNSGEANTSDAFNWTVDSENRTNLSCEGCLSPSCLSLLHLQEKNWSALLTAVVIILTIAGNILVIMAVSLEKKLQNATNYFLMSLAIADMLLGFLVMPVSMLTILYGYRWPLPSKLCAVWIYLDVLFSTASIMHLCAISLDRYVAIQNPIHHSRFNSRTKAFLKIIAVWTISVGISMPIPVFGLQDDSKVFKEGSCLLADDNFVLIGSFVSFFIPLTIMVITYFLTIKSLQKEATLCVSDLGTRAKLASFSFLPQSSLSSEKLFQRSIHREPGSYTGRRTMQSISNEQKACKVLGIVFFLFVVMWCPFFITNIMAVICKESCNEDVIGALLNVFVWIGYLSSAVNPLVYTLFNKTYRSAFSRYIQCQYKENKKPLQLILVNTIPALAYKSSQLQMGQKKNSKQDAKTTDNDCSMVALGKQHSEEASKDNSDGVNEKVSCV

[4] = molecular target: 5-hydroxytryptamine receptor 3A (Homo sapiens) (UniProt P46098); experiment: 5HT3/H Eurofins SafetyScreen44 (BI); conditions: Compound concentration 10.0 uM
[5] = molecular target: Adenosine receptor A2a (Homo sapiens) (UniProt P29274); experiment: A2A/H Eurofins SafetyScreen44 (BI); conditions: filed as antagonist, Compound concentration 10.0 uM
[6] = molecular target: Angiotensin-converting enzyme (Homo sapiens) (UniProt P12821); experiment: ACE(HU_AMTCH400) Eurofins SafetyScreen44 (BI); conditions: Compound concentration 10.0 uM
[7] = molecular target: Alpha-1A adrenergic receptor (Homo sapiens) (UniProt P35348); experiment: ALPHA1AH_ANTAG Eurofins SafetyScreen44 (BI); conditions: filed as antagonist, Compound concentration 10.0 uM
[8] = molecular target: Alpha-2A adrenergic receptor (Homo sapiens) (UniProt P08913); experiment: ALPHA2A/HU Eurofins SafetyScreen44 (BI); conditions: Compound concentration 10.0 uM
Sequence of Alpha-2A adrenergic receptor (Homo sapiens) (P08913 whole entry): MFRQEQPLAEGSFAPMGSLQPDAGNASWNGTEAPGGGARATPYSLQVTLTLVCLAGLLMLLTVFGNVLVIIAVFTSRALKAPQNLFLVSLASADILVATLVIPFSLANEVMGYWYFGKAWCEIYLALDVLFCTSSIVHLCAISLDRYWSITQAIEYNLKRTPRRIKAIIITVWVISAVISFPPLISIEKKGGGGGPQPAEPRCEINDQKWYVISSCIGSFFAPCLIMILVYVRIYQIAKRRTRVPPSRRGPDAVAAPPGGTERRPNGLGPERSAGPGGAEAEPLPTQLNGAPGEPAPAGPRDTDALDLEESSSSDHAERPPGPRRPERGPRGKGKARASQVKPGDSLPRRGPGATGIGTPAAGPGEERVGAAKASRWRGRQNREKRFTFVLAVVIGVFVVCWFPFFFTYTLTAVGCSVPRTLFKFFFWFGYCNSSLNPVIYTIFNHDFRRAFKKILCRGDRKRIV

[9] = molecular target: Muscarinic acetylcholine receptor M1 (Homo sapiens) (UniProt P11229); experiment: M1/H Eurofins SafetyScreen44 (BI); conditions: Compound concentration 10.0 uM
[10] = molecular target: MAO-A (amine oxidase [flavin-containing] A) (Rattus norvegicus, UniProt P21396); experiment: MAO-A_ANTAG Eurofins SafetyScreen44 (BI); set-up: scale not given: the % may be the effect or the level left; conditions: compound concentration 10 uM, read-out: % Ctrl
[11] = molecular target: Mu-type opioid receptor (Homo sapiens) (UniProt P35372); experiment: MU/H Eurofins SafetyScreen44 (BI); conditions: Compound concentration 10.0 uM
[12] = molecular target: voltage-gated Na+ channel (site 2) (Rattus norvegicus, UniProt F1LQQ7+O08562+O88420+O88457+P04774+P04775+P08104+P15389+P15390+Q62968); experiment: NA+/SITE2/R Eurofins SafetyScreen44 (BI); assay type: protein assay; conditions: rat brain, probe [3H]batrachotoxinin, compound concentration 10 uM, read-out: % Ctrl
[13] = molecular target: Glutamate NMDA receptor (Rattus norvegicus) (UniProt P35439+Q00959+Q00960+Q00961+Q62645+Q8VHN2+Q9R1M7); experiment: NMDA/R Eurofins SafetyScreen44 (BI); assay type: protein-complex assay; conditions: Compound concentration 10.0 uM
[14] = molecular target: Neuronal acetylcholine receptor; alpha4/beta2 (Homo sapiens) (UniProt P17787+P43681); experiment: N_NEURO_A4B2 Eurofins SafetyScreen44 (BI); assay type: protein-complex assay; conditions: filed as agonist, Compound concentration 10.0 uM
[15] = molecular target: Tyrosine-protein kinase ABL1 (Homo sapiens) (UniProt P00519); experiment: ABL1 Invitrogen Lab (UK) kinase screen (BI); conditions: Compound concentration 1.0 uM
[16] = molecular target: Aurora kinase B (Homo sapiens) (UniProt Q96GD4); experiment: AURKB Invitrogen Lab (UK) kinase screen (BI); conditions: Compound concentration 1.0 uM
[17] = molecular target: Cyclin-dependent kinase 2/cyclin A (Homo sapiens) (UniProt P24941+P20248+P78396); experiment: CDK2/CYCLINA Invitrogen Lab (UK) kinase screen (BI); assay type: protein-complex assay; conditions: Compound concentration 1.0 uM
[18] = molecular target: Ephrin type-A receptor 2 (Homo sapiens) (UniProt P29317); experiment: EPHA2 Invitrogen Lab (UK) kinase screen (BI); conditions: Compound concentration 1.0 uM
[19] = molecular target: Insulin receptor (Homo sapiens) (UniProt P06213); experiment: INSR Invitrogen Lab (UK) kinase screen (BI); conditions: Compound concentration 1.0 uM
[20] = molecular target: Vascular endothelial growth factor receptor 2 (Homo sapiens) (UniProt P35968); experiment: KDR Invitrogen Lab (UK) kinase screen (BI); conditions: Compound concentration 1.0 uM
[21] = molecular target: MAP kinase-activated protein kinase 3 (Homo sapiens) (UniProt Q16644); experiment: MAPKAPK3 Invitrogen Lab (UK) kinase screen (BI); conditions: Compound concentration 1.0 uM
[22] = molecular target: Myosin light chain kinase 2, skeletal/cardiac muscle (Homo sapiens) (UniProt Q9H1R3); experiment: MYLK2 Invitrogen Lab (UK) kinase screen (BI); conditions: Compound concentration 1.0 uM
[23] = molecular target: Serine/threonine-protein kinase Nek1 (Homo sapiens) (UniProt Q96PY6); experiment: NEK1 Invitrogen Lab (UK) kinase screen (BI); conditions: Compound concentration 1.0 uM
[24] = molecular target: Phosphatidylinositol 4,5-bisphosphate 3-kinase catalytic subunit gamma isoform (Homo sapiens) (UniProt P48736); experiment: PIK3CG Invitrogen Lab (UK) kinase screen (BI); conditions: Compound concentration 1.0 uM
[25] = molecular target: cAMP-dependent protein kinase catalytic subunit alpha (Homo sapiens) (UniProt P17612); experiment: PRKACA Invitrogen Lab (UK) kinase screen (BI); conditions: Compound concentration 1.0 uM
[26] = molecular target: Focal adhesion kinase 1 (Homo sapiens) (UniProt Q05397); experiment: PTK2 Invitrogen Lab (UK) kinase screen (BI); conditions: Compound concentration 1.0 uM
[27] = molecular target: RAF proto-oncogene serine/threonine-protein kinase (Homo sapiens) (UniProt P04049); experiment: RAF1 Invitrogen Lab (UK) kinase screen (BI); conditions: Compound concentration 1.0 uM
[28] = molecular target: SRSF protein kinase 2 (Homo sapiens) (UniProt P78362); experiment: SRPK2 Invitrogen Lab (UK) kinase screen (BI); conditions: Compound concentration 1.0 uM
[29] = molecular target: Serine/threonine-protein kinase 3 (Homo sapiens) (UniProt Q13188); experiment: STK3 Invitrogen Lab (UK) kinase screen (BI); conditions: Compound concentration 1.0 uM
[30] = molecular target: 5-hydroxytryptamine receptor 1A (Homo sapiens) (UniProt P08908); conditions: Compound concentration 10.0 uM
Sequence of 5-hydroxytryptamine receptor 1A (Homo sapiens) (P08908 whole entry): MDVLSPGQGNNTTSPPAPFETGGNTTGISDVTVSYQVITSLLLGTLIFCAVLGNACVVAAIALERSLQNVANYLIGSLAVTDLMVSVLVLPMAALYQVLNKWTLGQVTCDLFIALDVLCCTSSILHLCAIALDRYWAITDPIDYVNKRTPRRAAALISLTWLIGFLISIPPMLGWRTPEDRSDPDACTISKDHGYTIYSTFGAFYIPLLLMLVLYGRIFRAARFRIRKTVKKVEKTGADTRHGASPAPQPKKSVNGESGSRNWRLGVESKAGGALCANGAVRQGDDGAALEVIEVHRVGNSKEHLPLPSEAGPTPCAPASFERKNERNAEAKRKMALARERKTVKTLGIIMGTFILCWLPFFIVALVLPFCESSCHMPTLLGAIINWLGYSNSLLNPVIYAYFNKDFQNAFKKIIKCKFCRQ

[31] = molecular target: 5-hydroxytryptamine receptor 1B (Homo sapiens) (UniProt P28222); conditions: Compound concentration 10.0 uM
Sequence of 5-hydroxytryptamine receptor 1B (Homo sapiens) (P28222 whole entry): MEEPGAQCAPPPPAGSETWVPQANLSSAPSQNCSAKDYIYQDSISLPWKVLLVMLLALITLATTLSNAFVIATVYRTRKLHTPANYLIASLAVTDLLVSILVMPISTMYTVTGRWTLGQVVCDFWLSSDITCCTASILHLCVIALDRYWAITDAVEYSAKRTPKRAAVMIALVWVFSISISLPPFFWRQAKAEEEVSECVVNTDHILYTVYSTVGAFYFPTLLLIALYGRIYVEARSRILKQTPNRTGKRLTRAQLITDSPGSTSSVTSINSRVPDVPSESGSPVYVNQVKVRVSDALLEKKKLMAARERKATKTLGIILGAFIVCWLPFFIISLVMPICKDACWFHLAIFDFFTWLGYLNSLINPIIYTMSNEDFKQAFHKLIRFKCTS

[32] = molecular target: 5-hydroxytryptamine receptor 2A (Homo sapiens) (UniProt P28223); conditions: Compound concentration 10.0 uM
[33] = molecular target: D(1B) dopamine receptor (Homo sapiens) (UniProt P21918); conditions: Compound concentration 10.0 uM
Sequence of D(1B) dopamine receptor (Homo sapiens) (P21918 whole entry): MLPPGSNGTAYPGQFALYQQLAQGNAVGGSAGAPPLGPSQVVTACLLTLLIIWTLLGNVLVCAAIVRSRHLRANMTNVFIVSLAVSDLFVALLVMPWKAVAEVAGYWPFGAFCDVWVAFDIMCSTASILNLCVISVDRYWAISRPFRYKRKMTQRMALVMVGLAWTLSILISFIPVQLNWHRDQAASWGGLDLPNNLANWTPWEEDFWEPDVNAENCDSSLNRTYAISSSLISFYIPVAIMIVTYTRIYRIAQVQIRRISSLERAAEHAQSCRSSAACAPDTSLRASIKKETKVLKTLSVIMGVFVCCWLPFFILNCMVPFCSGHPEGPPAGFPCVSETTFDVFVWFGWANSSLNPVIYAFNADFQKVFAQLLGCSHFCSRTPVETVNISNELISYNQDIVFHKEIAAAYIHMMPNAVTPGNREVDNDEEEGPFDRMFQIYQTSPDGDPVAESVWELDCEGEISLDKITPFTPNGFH

[34] = molecular target: Kappa-type opioid receptor (Homo sapiens) (UniProt P41145); conditions: Compound concentration 10.0 uM
Sequence of Kappa-type opioid receptor (Homo sapiens) (P41145 whole entry): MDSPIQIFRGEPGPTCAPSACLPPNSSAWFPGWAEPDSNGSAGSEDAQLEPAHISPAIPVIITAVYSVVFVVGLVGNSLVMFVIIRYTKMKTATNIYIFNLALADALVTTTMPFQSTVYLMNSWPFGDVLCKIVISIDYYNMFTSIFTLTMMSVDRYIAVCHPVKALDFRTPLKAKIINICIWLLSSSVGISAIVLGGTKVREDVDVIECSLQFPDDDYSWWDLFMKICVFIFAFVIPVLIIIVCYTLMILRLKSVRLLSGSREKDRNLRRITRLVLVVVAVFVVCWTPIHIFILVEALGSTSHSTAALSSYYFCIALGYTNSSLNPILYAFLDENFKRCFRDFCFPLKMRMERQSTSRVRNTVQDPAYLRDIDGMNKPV

[35] = molecular target: Histamine H3 receptor (Homo sapiens) (UniProt Q9Y5N1); conditions: Compound concentration 10.0 uM
Sequence of Histamine H3 receptor (Homo sapiens) (Q9Y5N1 whole entry): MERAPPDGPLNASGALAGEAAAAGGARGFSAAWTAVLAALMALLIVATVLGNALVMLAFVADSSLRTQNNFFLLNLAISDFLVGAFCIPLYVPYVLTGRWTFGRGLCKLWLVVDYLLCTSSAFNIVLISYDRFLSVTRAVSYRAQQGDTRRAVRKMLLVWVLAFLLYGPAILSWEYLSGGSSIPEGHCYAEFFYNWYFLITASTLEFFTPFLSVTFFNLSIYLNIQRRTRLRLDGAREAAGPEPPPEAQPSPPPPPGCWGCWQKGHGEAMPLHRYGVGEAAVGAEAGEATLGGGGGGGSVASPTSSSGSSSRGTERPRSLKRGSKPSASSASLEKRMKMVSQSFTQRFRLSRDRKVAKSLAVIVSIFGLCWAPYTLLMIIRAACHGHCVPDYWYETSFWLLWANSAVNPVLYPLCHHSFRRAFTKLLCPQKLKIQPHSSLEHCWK

[36] = molecular target: Histamine H4 receptor (Homo sapiens) (UniProt Q9H3N8); conditions: Compound concentration 10.0 uM
[37] = molecular target: Alpha-2A adrenergic receptor (Homo sapiens) (UniProt P08913); conditions: Compound concentration 10.0 uM
[38] = molecular target: Alpha-2C adrenergic receptor (Homo sapiens) (UniProt P18825); conditions: Compound concentration 10.0 uM
Sequence of Alpha-2C adrenergic receptor (Homo sapiens) (P18825 whole entry): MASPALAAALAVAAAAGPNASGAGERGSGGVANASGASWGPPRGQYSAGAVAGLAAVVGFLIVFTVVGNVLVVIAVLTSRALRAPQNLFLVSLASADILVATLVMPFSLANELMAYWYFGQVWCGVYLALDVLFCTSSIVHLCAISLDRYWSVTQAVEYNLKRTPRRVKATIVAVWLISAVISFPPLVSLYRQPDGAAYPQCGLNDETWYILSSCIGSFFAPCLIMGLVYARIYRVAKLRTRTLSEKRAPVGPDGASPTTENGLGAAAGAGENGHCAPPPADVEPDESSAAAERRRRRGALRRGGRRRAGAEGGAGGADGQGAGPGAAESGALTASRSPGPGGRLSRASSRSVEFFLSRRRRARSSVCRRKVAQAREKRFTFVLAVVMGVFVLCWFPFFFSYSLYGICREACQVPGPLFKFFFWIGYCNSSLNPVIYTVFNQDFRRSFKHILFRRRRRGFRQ

[39] = molecular target: Beta-3 adrenergic receptor (Homo sapiens) (UniProt P13945); conditions: Compound concentration 10.0 uM
Sequence of Beta-3 adrenergic receptor (Homo sapiens) (P13945 whole entry, looked up): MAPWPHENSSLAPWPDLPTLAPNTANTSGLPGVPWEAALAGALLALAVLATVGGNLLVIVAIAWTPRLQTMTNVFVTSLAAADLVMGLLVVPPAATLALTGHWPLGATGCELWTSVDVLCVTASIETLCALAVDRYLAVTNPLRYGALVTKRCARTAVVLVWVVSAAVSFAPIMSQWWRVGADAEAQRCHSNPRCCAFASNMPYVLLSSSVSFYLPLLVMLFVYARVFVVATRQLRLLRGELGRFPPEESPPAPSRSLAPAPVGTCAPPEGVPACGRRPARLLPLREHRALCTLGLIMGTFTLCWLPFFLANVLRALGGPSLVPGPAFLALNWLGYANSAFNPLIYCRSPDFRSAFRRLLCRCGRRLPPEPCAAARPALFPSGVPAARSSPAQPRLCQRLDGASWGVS

[40] = molecular target: Sigma intracellular receptor 2 (Homo sapiens) (UniProt Q5BJF2); conditions: Compound concentration 10.0 uM
Sequence of Sigma intracellular receptor 2 (Homo sapiens) (Q5BJF2 whole entry): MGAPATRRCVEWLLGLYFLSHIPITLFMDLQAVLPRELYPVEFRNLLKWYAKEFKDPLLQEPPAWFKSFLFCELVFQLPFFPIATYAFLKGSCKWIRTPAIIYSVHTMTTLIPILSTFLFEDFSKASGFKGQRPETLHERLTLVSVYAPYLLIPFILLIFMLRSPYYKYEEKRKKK

[41] = molecular target: Sigma non-opioid intracellular receptor 1 (Homo sapiens) (UniProt Q99720); conditions: Compound concentration 10.0 uM
Sequence of Sigma non-opioid intracellular receptor 1 (Homo sapiens) (Q99720 whole entry): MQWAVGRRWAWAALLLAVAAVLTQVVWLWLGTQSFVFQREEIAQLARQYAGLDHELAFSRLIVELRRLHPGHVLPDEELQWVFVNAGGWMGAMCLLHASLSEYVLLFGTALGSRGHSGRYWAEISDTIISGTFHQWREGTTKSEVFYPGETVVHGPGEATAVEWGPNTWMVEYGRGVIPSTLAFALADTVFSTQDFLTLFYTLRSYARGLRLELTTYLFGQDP

[42] = molecular target: Mitogen-activated protein kinase 3 (Homo sapiens) (UniProt P27361); experiment: MAPK3 Invitrogen Lab (UK) kinase screen (BI); conditions: Compound concentration 1.0 uM

Sequence of Muscarinic acetylcholine receptor M4 (P08173 whole entry): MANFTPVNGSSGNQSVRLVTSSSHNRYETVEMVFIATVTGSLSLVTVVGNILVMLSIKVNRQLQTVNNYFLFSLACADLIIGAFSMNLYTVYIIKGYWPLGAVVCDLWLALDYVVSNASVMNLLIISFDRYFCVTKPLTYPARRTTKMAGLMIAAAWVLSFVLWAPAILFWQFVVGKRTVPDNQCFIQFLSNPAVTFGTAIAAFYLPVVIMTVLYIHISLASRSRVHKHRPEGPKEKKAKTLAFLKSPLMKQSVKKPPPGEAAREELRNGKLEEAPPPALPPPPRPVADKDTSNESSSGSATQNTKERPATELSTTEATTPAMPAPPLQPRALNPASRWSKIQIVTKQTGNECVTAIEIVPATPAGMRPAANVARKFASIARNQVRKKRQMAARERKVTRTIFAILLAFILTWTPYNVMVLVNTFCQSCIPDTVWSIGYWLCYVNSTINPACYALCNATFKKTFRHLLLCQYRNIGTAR

pKi ([1]; read-out: Ki): 6.06 | Ki ([1]; read-out: pKi (converted)): 851 nM | Kd [2]: 3680 nM (not active) | residual activity [15]: 93% | residual activity [16]: 89% | residual activity [17]: 88% | residual activity [18]: 99% | residual activity [19]: 93% | residual activity [20]: 98% | residual activity [21]: 99% | residual activity [22]: 101% | residual activity [23]: 98% | residual activity [24]: 98% | residual activity [25]: 99% | residual activity [26]: 90% | residual activity [27]: 79% | residual activity [28]: 103% | residual activity [29]: 100% | inhibition [30]: 22.9% | inhibition [31]: 9.19% | inhibition [32]: 7.86% | inhibition [33]: 3.05% | inhibition [34]: 15.4% | inhibition [35]: 20.9% | inhibition [36]: -1.33% | inhibition [37]: 15.1% | inhibition [38]: 3.4% | inhibition [39]: 4.51% | inhibition [40]: 38.2% | inhibition [41]: 16.8% | residual activity [42]: 95%
Compound: CNC(=O)COc1cc2cc(Nc3nc(N4CCC(C(=O)N(C)C)CC4)ncc3Cl)cc(OC)c2n(C)c1=O
residual activity [3]: 119% | residual activity [4]: 95% | residual activity [5]: 86% | residual activity [6]: 96% | residual activity [7]: 99% | residual activity [8]: 98% | residual activity [9]: 15% | activity at 10 µM [10]: 103% (not active) | residual activity [11]: 95% | activity at 10 µM [12]: 84% (not active) | residual activity [13]: 104% | residual activity [14]: 98%
